Reference: US4251444A, “Thiazepino-[4,3-b]-isoquinoline-1,5-dione derivatives and precursors” (American Home Products Corporation, priority 1980, dated 1981)

Tested on: male spontaneously hypertensive rats
Test: blood pressure lowering, systolic pressure by Decker Caudal Plethysmograph
Type: in vivo
Conditions: four hours after administration of a 50 milligram dose; standard experimental rat, oral
Description: The compounds tested were administered orally and blood pressure was read prior to and at 1.5, 4 and 24 hours after drug administration.

Q: `CC(CSC(=O)c1ccccc1)C(=O)N1Cc2ccccc2CC1C(=O)O` (single isomer, unassigned) [Example 4, 2-(3-Benzoylthio-2-methylpropanoyl)-1,2,3,4-tetrahydroisoquinoline-3-carboxylic acid] was tested. Which “reduction of blood pressure” value did it give?
A: The value was 29 millimeters.
